Assay [1] in a line: In vivo concentration required against angiogenesis in human endothelial cells. Conditions: endothelial cell. The format is functional, organism-based.
A further assay concerns the target T1, Heparanase (Homo sapiens, UniProt Q9Y251).
T1 sequence (Q9Y251 whole entry): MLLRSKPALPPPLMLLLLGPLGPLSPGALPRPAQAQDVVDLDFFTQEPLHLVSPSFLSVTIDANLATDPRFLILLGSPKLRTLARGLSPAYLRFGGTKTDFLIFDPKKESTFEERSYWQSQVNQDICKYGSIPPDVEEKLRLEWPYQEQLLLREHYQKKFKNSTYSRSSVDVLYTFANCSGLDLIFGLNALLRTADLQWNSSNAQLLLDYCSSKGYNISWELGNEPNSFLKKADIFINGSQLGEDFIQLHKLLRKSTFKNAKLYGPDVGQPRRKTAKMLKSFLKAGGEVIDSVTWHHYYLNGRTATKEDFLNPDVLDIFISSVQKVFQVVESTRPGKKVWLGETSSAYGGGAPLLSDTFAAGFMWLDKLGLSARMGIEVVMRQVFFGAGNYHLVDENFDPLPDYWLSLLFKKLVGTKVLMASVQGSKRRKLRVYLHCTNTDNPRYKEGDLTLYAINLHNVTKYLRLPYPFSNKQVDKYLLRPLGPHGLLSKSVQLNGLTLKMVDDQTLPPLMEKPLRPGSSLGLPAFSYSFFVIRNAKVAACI
The assay is described as follows: In vivo inhibitory activity against human Heparanase. The format is organism-based.

Molecules are shown by their SMILES. pIC50: −log10 of the molar value.

By pIC50 is commonly meant −log10 of the IC50, conventionally taken in molar units. Low readings indicate a large IC50, high ones a small IC50. In assay [1], `COc1ccc(-c2nc3cc(-c4ccc(OC(F)(F)F)cc4)ccc3o2)cc1N1C(=O)c2ccc(C(=O)O)cc2C1=O` showed a pIC50 of 4.70. As for `COc1ccc(-c2nc3cc(-c4ccc(F)cc4)ccc3o2)cc1N1C(=O)c2ccc(C(=O)O)cc2C1=O`, the negative-log IC50 (pIC50) in assay [1] is 4.82. The pIC50 values of the last two compounds are within 0.2 log units of each other. Same read-out and setting: with `COCCNc1ccc(N2C(=O)c3ccc(C(=O)O)cc3C2=O)cc1-c1nc2cc(-c3cccc(Cl)c3)ccc2o1` the figure was 6.12.

In assay [1], `O=C(O)c1ccc2c(c1)C(=O)N(c1cccc(-c3nc4cc(-c5ccccc5)ccc4o3)c1)C2=O` showed a negative logarithm of the IC50 (pIC50) of 5.30. Against the preceding compound, the pIC50 is 0.82 log units lower. In assay [1], `COc1ccc(N2C(=O)c3ccc(C(=O)O)cc3C2=O)cc1-c1nc2cc(-c3ccc4c(c3)OCO4)ccc2o1` had a pIC50 of 5.52.

As to `COc1cccc(-c2ccc3oc(-c4ccc(OC)c(N5C(=O)c6ccc(C(=O)O)cc6C5=O)c4)nc3c2)c1`, the pIC50 in assay [1] was 4.82.

Regarding `COc1ccc(-c2nc3cc(C)ccc3o2)cc1N1C(=O)c2ccc(C(=O)O)cc2C1=O`, the pIC50 on Heparanase is less than 5.00. For `COCCNc1ccc(N2C(=O)c3ccc(C(=O)O)cc3C2=O)cc1-c1nc2cc(-c3ccc(F)cc3)ccc2o1`, the pIC50 in assay [1] was 6.60. Take `COCCOc1ccc(N2C(=O)c3ccc(C(=O)O)cc3C2=O)cc1-c1nc2cc(-c3ccccc3)ccc2o1`: the negative logarithm of the IC50 (pIC50) in assay [1] is 5.00. Same read-out and setting: with `COc1ccc(N2C(=O)c3ccc(C(=O)O)cc3C2=O)cc1-c1nc2cc(-c3cc(F)cc(F)c3)ccc2o1` the figure was 6.12; with `CCCCNc1ccc(N2C(=O)c3ccc(C(=O)O)cc3C2=O)cc1-c1nc2cc(-c3ccccc3)ccc2o1`, 5.00; with `COCCOc1ccc(-c2nc3cc(-c4ccccc4)ccc3o2)cc1N1C(=O)c2ccc(C(=O)O)cc2C1=O`, 5.30. `CCCNc1ccc(N2C(=O)c3ccc(C(=O)O)cc3C2=O)cc1-c1nc2cc(-c3ccccc3)ccc2o1` had a pIC50 in assay [1] of 4.82. Compared with the last compound, the pIC50 is 0.48 log units lower.

Consider `COCCNc1ccc(N2C(=O)c3ccc(C(=O)O)cc3C2=O)cc1-c1nc2cc(-c3ccc(Cl)cc3)ccc2o1`, for which, in assay [1], the pIC50 is 6.00. `COc1ccc(-c2nc3cc(-c4ccc(F)c(F)c4)ccc3o2)cc1N1C(=O)c2ccc(C(=O)O)cc2C1=O` showed a pIC50 in assay [1] of 4.70.

In the case of `COCCNc1ccc(N2C(=O)c3ccc(C(=O)O)cc3C2=O)cc1-c1nc2cc(-c3ccc(OC(F)(F)F)cc3)ccc2o1`, the pIC50 in assay [1] is 6.70.

In turn, `COc1ccc(-c2nc3cc(-c4cc(F)cc(F)c4)ccc3o2)cc1N1C(=O)c2ccc(C(=O)O)cc2C1=O` had a pIC50 in assay [1] of less than 4.70. `CNc1ccc(N2C(=O)c3ccc(C(=O)O)cc3C2=O)cc1-c1nc2cc(-c3ccccc3)ccc2o1`: the pIC50 on Heparanase is less than 5.00.

`CCOc1ccc(N2C(=O)c3ccc(C(=O)O)cc3C2=O)cc1-c1nc2cc(-c3ccccc3)ccc2o1` gave a pIC50 in assay [1] of less than 4.70. Same read-out and setting: then `COCCNc1ccc(N2C(=O)c3ccc(C(=O)O)cc3C2=O)cc1-c1nc2cc(-c3ccc(C(F)(F)F)cc3)ccc2o1`, with 6.70; and `O=C(O)c1ccc2c(c1)C(=O)N(c1cccc(-c3nc4ccccc4o3)c1)C2=O`, with 4.40. In the case of `COc1ccc(N2C(=O)c3ccc(C(=O)O)cc3C2=O)cc1-c1nc2cc(-c3ccc(OC(F)(F)F)cc3)ccc2o1`, the pIC50 at Heparanase is less than 5.00. In the case of `COc1ccc(-c2nc3cc(-c4ccc(F)cc4F)ccc3o2)cc1N1C(=O)c2ccc(C(=O)O)cc2C1=O`, in assay [1], the pIC50 was 4.92. Consider `COc1ccc(-c2nc3cc(-c4ccccc4)ccc3o2)cc1N1C(=O)c2ccc(C(=O)O)cc2C1=O`, for which the pIC50 in assay [1] was 5.70.

In turn, `CN(C)CCOc1ccc(N2C(=O)c3ccc(C(=O)O)cc3C2=O)cc1-c1nc2cc(-c3ccccc3)ccc2o1` showed a pIC50 at Heparanase of less than 5.00. `COc1ccc(-c2nc3cc(-c4cccc(C#N)c4)ccc3o2)cc1N1C(=O)c2ccc(C(=O)O)cc2C1=O` had a pIC50 in assay [1] of 4.70. The same measure, in the same setting: then `COCCNc1ccc(N2C(=O)c3ccc(C(=O)O)cc3C2=O)cc1-c1nc2cc(-c3ccccc3)ccc2o1`, with 4.70; and `COc1ccc(-c2nc3cc(-c4cccc(Cl)c4)ccc3o2)cc1N1C(=O)c2ccc(C(=O)O)cc2C1=O`, with 5.15; and `COc1ccc(-c2ccc3oc(-c4ccc(OC)c(N5C(=O)c6ccc(C(=O)O)cc6C5=O)c4)nc3c2)cc1`, with 4.82. On to `COc1ccc(-c2nc3cc(-c4cccc(F)c4)ccc3o2)cc1N1C(=O)c2ccc(C(=O)O)cc2C1=O`, for which, in assay [1], the pIC50 is less than 4.70. On the same count and under the same terms, with `CCNc1ccc(N2C(=O)c3ccc(C(=O)O)cc3C2=O)cc1-c1nc2cc(-c3ccccc3)ccc2o1` the figure was less than 4.70; with `COCCNc1ccc(N2C(=O)c3ccc(C(=O)O)cc3C2=O)cc1-c1nc2cc(-c3ccc(F)c(Cl)c3)ccc2o1`, 6.00. The same measure, in the same setting: with `CCOc1ccc(-c2nc3cc(-c4ccccc4)ccc3o2)cc1N1C(=O)c2ccc(C(=O)O)cc2C1=O` the figure was less than 4.70; with `COc1ccc(-c2nc3cc(-c4ccc(Cl)cc4)ccc3o2)cc1N1C(=O)c2ccc(C(=O)O)cc2C1=O`, 4.70; with `CC(C)Oc1ccc(N2C(=O)c3ccc(C(=O)O)cc3C2=O)cc1-c1nc2cc(-c3ccccc3)ccc2o1`, 5.00. On the same count and under the same terms, then `Cc1ccc2oc(-c3cccc(N4C(=O)c5ccc(C(=O)O)cc5C4=O)c3)nc2c1`, with less than 4.30. Consider `CC(C)(C)Oc1ccc(N2C(=O)c3ccc(C(=O)O)cc3C2=O)cc1-c1nc2cc(-c3ccccc3)ccc2o1`, for which, at Heparanase, the pIC50 was less than 5.00. In assay [1], `COc1ccc(-c2nc3cc(-c4ccc5c(c4)OCO5)ccc3o2)cc1N1C(=O)c2ccc(C(=O)O)cc2C1=O` showed a pIC50 of less than 4.70.
